In ChEMBL document CHEMBL3507680, “University of Dundee, Gates Library screen for HepG2 cell viability”:

Assay: Human HepG2 cell viability assay in 384 well format
Type: toxicity, cell-based
Parameters: dose 125 nL, time 70.5 hour; cytotoxicity at 70.5 h: concentration not given beside the values
Settings: HepG2 cells, read-out: Inhibition

Row | SMILES | cytotoxicity at 70.5 h [%]
1 | CCS(=O)(=O)N1CCC2(CN(C(=O)c3cn(C)cn3)C2)C1 | 8.36
2 | Cc1ccc(C(=O)N2C[C@@H]3CN(c4ncccn4)C[C@@H]3C2)cn1 | -9.68
3 | CCCS(=O)(=O)N1CCOC2(CCCN(c3ncc(F)cn3)C2)C1 (configuration not stated) | -13.3
4 | CCCS(=O)(=O)N1CCC2(CCCN(c3ncc(F)cn3)C2)C1 (configuration not stated) | -6.01
5 | c1coc(CN2CCc3onc(Cn4ccnc4)c3C2)c1 | -2.36
6 | Cc1nc(N2CCCC2)nc2c1CN(C(=O)c1ccco1)CC2 | -4.28
7 | Fc1cccc(N2CCc3ncnc(C4CC4)c3CC2)c1 | -4.85
8 | Fc1cccc(N2CCc3ncnc(N4CCOCC4)c3CC2)c1 | -6.22
9 | CN(C)c1ncnc2c1CCN(c1cccc(F)c1)CC2 | -3.26
10 | O=C(O)c1nnn(Cc2ccc(F)cc2)c1-c1cccnc1 | -10.1
11 | Cc1ccc(Cl)cc1NC(=O)Cn1cc(C(=O)O)ccc1=O | 4.77
12 | Cc1c(Cl)cccc1NC(=O)Cn1cc(C(=O)O)ccc1=O | -10.5
13 | COc1cc(C2C3=C(COC3=O)Nc3[nH]nc(C)c32)cc(Br)c1O (configuration not stated) | 2.06
14 | O=c1c2cnc(N3CCOCC3)nc2ccn1-c1ccccc1 | -7.35
15 | COc1cc(C2C3=C(COC3=O)Nc3[nH]nc(C)c32)cc2c1OCO2 (configuration not stated) | 9.37
16 | COc1ccc(C2SCC(=O)Nc3ccsc32)cc1OC (configuration not stated) | -11.5
17 | COc1cc(CC(O)CC#N)c(OC)c2c1OCO2 (configuration not stated) | -9.38
18 | CC(C)c1cc2c(O)nc(CSCC(=O)NCc3ccccn3)nc2s1 | -5.56
19 | O=C(NC1CC1)c1cc2c(nc1O)CC(c1cccs1)CC2=O (configuration not stated) | -11.9
20 | CCOC(=O)N1CCN(c2nc(N3CCCC3)c3ccccc3n2)CC1 | -6.36
21 | COc1cccc(-n2ccc3nc(N4CCCC4)ncc3c2=O)c1 | -4.05

Row | SMILES | cytotoxicity at 70.5 h [%]
22 | Cc1ccc(-n2ccc3nc(N4CCCC4)ncc3c2=O)cc1C | 9.54
23 | CC(C)CCN1N=C(C(=O)N2CCCCCC2)S(=O)(=O)c2ccccc21 | 21.7
24 | CSc1nc2cc(C)n(CC(=O)Nc3nccs3)c2c(=O)n1CC(C)C | -6.26
25 | COCCNC(=O)Cn1c(C)cc2nc(SC)n(CC(C)C)c(=O)c21 | 2.11
26 | CCOC(=O)CSc1ccc(-c2nc(CC)no2)cn1 | -2.21
27 | O=c1[nH]c2nc(NCC3CCCO3)ncc2c(=O)n1-c1cccc(F)c1 (configuration not stated) | 4.03
28 | O=c1[nH]c2nc(NC3CC3)ncc2c(=O)n1-c1ccc(F)cc1 | 0.679
29 | O=c1[nH]nc2nc(N3CCCC3)ccn12 | 5.61
30 | COc1cc(Cl)c(C)cc1-n1nnc(C(=O)O)c1C | -2
31 | COc1ccccc1OCC(=O)n1nc(C)c(C)c1C | 6.31
32 | O=C1COc2ccc(S(=O)(=O)N3CCOCC3)c3c2N1CCC3 | 35.1
33 | O=C(O)c1ccc2c(CN3CCCC3)c[nH]c2c1 | 5.69
34 | O=C(O)c1ccc2c(CN3CCOCC3)c[nH]c2c1 | 32.5
35 | CC(C)n1[nH]c(=O)c2c1NC(=O)CSC2C1CCCCC1 (configuration not stated) | 9.25
36 | COC(=O)C(CCSC)NC(=O)Cc1c(C)nn(-c2ccccc2)c1C (configuration not stated) | 1.93
37 | Cc1sc(CN)nc1-c1ccc(Cl)cc1Cl | 5.42
38 | CC(=O)Nc1nc(-c2ccc(F)cc2)c[nH]1 | 36.5
39 | CC(=O)Nc1ncc(-c2ccc(C)cc2)[nH]1 | 4.65
40 | Oc1nnc(-c2cccs2)c2sc(N3CCCC3)nc12 | -6.61
41 | O=c1[nH]c2nc(N3CCCCCC3)ncc2c(=O)n1-c1cccc(F)c1 | -0.0138
42 | NC(=O)C1CCN(c2nc3nccc(-c4ccncc4)c3c(=O)[nH]2)CC1 | -1.26

Row | SMILES | cytotoxicity at 70.5 h [%]
43 | COc1cc(C2SCC(=O)Nc3n[nH]cc32)cc(OC)c1O (configuration not stated) | -19.7
44 | CC(C)CCNC(=O)c1c(-n2cnnn2)sc2c1CCCC2 | -0.216
45 | O=C(Nc1cccnc1)c1nn(C2CCS(=O)(=O)C2)c2c1CCCC2 (configuration not stated) | -23.7
46 | CNc1nc2c(s1)C(c1cc(Cl)ccc1F)CC(=O)N2 (configuration not stated) | 57.6
47 | O=C(Nc1ccccc1F)c1nn(C2CCS(=O)(=O)C2)c2c1CCCC2 (configuration not stated) | -7.2
48 | O=C(c1ccc(Cl)cc1-n1cnnn1)N1CCC2(CC1)OCCO2 | -0.151
49 | COc1cc(C2SCC(=O)Nc3[nH]ncc32)cc(OC)c1OC (configuration not stated) | -5.35
50 | O=C1CC(c2ccccc2C(F)(F)F)c2sc(N3CCOCC3)nc2N1 (configuration not stated) | -13.5
51 | COc1ccc(C2CC(=O)Nc3nc(N4CCOCC4)sc32)c(OC)c1 (configuration not stated) | -21.3
52 | CNc1nc2c(s1)C(c1ccccc1Cl)CC(=O)N2 (configuration not stated) | -21.9
53 | NC(=O)c1ccc2c(c1)nc1n2CCN(Cc2cccnc2)C1 | -1.68
54 | CC(C)CNC(=O)c1ccc2c(c1)nc1n2CCN(Cc2ccco2)C1 | -0.527
55 | CCOC(=O)Cc1cs/c(=N/C(=O)COc2cnc(C)cc2O)[nH]1 | 5.42
56 | Cc1cc(O)c(OCC(=O)Nc2nccs2)cn1 | -21.7
57 | COCCNC(=O)c1c(-n2cnnn2)sc2c1CCCC2 | -4.74
58 | Oc1nc(N2CCOCC2)nc2nccc(-c3ccccn3)c12 | -4.58
59 | CNc1nc2c(s1)C(c1ccc(F)cc1Cl)CC(=O)N2 (configuration not stated) | 2.52
60 | CCc1c(C(=O)O)nnn1-c1cccc(C)c1C | -7.95
61 | Cc1ccc(-n2nnc(C(=O)O)c2C)c(C)c1 | 0.943
62 | Cc1cc(=O)n(CC(=O)NCC2CCCO2)c(-c2ccc(F)cc2)n1 (configuration not stated) | 13
63 | Cc1cc(C)n(Cc2cccc(C(=O)NCCN3CCOCC3)c2)n1 | -6.51

Row | SMILES | cytotoxicity at 70.5 h [%]
64 | Cc1nn(C)c2c(NCc3cccnc3)nc(C3CC3)nc12 | -3.52
65 | Cc1nc(C)c(C(=O)N2CCc3nnc(C4CCCCN4C)n3CC2)o1 (configuration not stated) | 0.605
66 | CCn1nc(C)c(CN2CCC(c3ccn[nH]3)C2)c1C (configuration not stated) | 4.91
67 | O=C1CCOC[C@]2(CN(Cc3ccccc3)C[C@H]2c2cccc(F)c2)N1 | -2.96
68 | CCOC(=O)N1CCN(c2nc(N)c3ccccc3n2)CC1 | -7.74
69 | CCCNCc1ccc(OCc2ccc3c(c2)OCCO3)cc1 | 33.3
70 | CN(C)Cc1cc(C2CCN(C(=O)C3CCCNC3)CC2)nn1C (configuration not stated) | -5.29
71 | Cc1cc(NCCO)nc(N2CCC(Cc3ccccc3)CC2)c1C#N | 0.669
72 | CN1C[C@@H]2CN(C(=O)NCc3cccc(F)c3)CCC[C@]2(C(=O)O)C1 | 8.66
73 | Cc1cnc(N2C[C@H]3CCN(CC4CC4)C[C@H]3C2)nc1 | 9.39
74 | Cn1cnc2c1C(C(=O)N1CCCC1)N(CC1CC1)CC2 (configuration not stated) | -9.9
75 | CC(=O)N1CCc2ncn(C)c2C1C(=O)N1CCCC1 (configuration not stated) | -6.96
76 | CC(C)n1cnc2c1C(C(=O)N1CCCC1)N(CC1CC1)CC2 (configuration not stated) | -1.74
77 | COCCC(=O)N1CCN(CC(C)C)c2nc(C)ccc2C1 | -4
78 | c1ccn(Cc2noc3c2CN(Cc2ccsc2)CC3)c1 | -6.24
79 | c1coc(CN2CCc3onc(Cn4cccc4)c3C2)c1 | -6.52
80 | CC(=O)N1CCn2c(-c3ccccc3)cnc2C12CCNCC2 | -6.82
81 | Cc1ccc2c(n1)N(CC(C)C)CCN(C(=O)Cc1ccccn1)C2 | -4.9
82 | Cc1cccc(CN2C[C@@H]3CN(Cc4ccoc4)CCO[C@@H]3C2)n1 | -1.63
